Test results published in patent publication EP1094711B1, “METHODS FOR ERADICATION OF NANOBACTERIA” (Nanobac Oy, priority 1998, dated 2000).
pIC50: −log10 of the molar value. Counter-ions that a name gives are not always drawn. Like-named read-outs stand apart in the source and are kept apart here.

Assays:
SF-nanobacteria = test: Chemical disinfection of SF-nanobacteria; assay type: cell-based; design: key to Resistance of SF-nanobacteria to chemical disinfectants (survival) / partial or total detachment on exposure: +++: No effect; ++: Reduced survival; +: Markedly reduced survival; - : No survival; * = partial or total detachment on exposure; settings: for Resistance of SF-nanobacteria to chemical disinfectants (survival): room temperature, survival after subculture compared to diluent only
Excerpt: The cultures were exposed to the disinfectants after removal of the culture medium. For the autoclaving, UV, microwave, and drying treatments, the medium was removed and an equal amount of PBS used instead. For the heat treatments, the SF-nanobacteria were harvested by scraping the culture vessel followed by centrifugation of the medium. The obtained pellet was suspended in PBS and used in the test. After treatments the SF-nanobacteria were subcultured in DMEM medium and the growth followed by light microscopy to see the adherence and typical mineralization.
The concentrations of the chemicals used were those commonly used for disinfection or as instructed by the manufacturer. The chemicals included 70% ethanol, 2% glutaraldehyde, 4% formaldehyde, 0.5% hypochlorite, 3% hydrogen peroxide, 1M hydrochloric acid (HCl), 1M sodium hydroxide (NaOH) , 1% sodium dodecyl sulfate (SDS), 1% Tween 80, 1 % Triton X-100, 3M guanidium-hydrochloride, 3M urea, 1% Virkon® (Antec International Ltd., Suffolk, England; 100% product contains 50% potassium persulfate, 5% sulfaminoic acid), 1.5% Erifenol® (Orion OY, Finland; 100% product contains <5% NaOH, <5% o-benzyl-p-chlorophenol, 5-15% p-chloro-m-cresol), 1% Klorilli® (Orion OY, Finland; 100% product contains sodium metasilicate, sodium N-chloro-p-toluenesulfonamide-3-hydrate and 20,000 ppm active chlorine), and 3% Buraton® (Schülke & Mayr, Germany; 100% product contains 4.5% formaldehyde, 6.8% glyoxal, 1.5% glyoxylic acid, 6% dimethylaurylbenzyl-ammonium chloride). The dilutions to be used were freshly prepared on the day of exposure in sterile distilled water. As a positive control, only diluent was used. Negative control contained only culture medium.
The SF-nanobacteria were exposed to the chemicals for 10 and 30 minutes at room temperature after removal of the culture medium. After exposure, the disinfectant solution was removed and fresh medium added (with a neutralization step in the case of HCl and NaOH). If any significant deattachment occurred, nanobacteria were recovered by centrifugation, and subcultured. The exposed serum-free cultures were passaged 1:10 after 48 hours and the growth was followed by light microscopy for three weeks.

nanobacteria = test: Antibiotic sensitivity test by Minimal Inhibition Concentration (MIC), 96-well plates, absorbance at 650 nm; assay type: cell-based; settings: for antinanobacterial effect in the in vitro test (in words): in vitro MIC test; for IC90: 90% inhibition, read-out: MIC 90
Experimental: Antibiotic sensitivity tests were carried out by measuring Minimal Inhibition Concentration (MIC), a common practice in clinical microbiology.
The tests were performed in 96-well plates. DMEM (commercial cell culture medium) containing 10% gamma-irradiated fetal bovine serum (FBS)(dose about 3 Mrads; this treatment inactivates nanobacteria in the serum so that the basic medium is sterile) was used as the basic culture medium. These components are commercially available, e.g., from Gibco. The antibiotic stock solutions were sterile filtered through 0.2 micrometer filters. The stock solutions were then serially diluted (into the basal culture medium) to provide a final starting concentration of 0.5 mg/ml and 1:2 dilutions therefrom, unless otherwise specified. For each antibiotic three parallel tests were performed using all the antibiotic dilutions and, additionally, positive and negative control experiments. […] 100 µl of dilutions of the nanobacteria inoculum were added to all wells except the negative controls. The plates were incubated at mammalian cell culture conditions (37° Celsius, 5% carbon dioxide, 95% humid air). The absorbance values at 650 nm were recorded by using an ELISA reader at the start, and at 4, 8, 12, 14 days. […] Calculations were based on absorbance curves where absorbance was plotted against concentration of the antibiotic.

[1] = light or radiation study, 288 h, read-out: MIC 50
[2] = light or radiation study, 288 h, 12 day time point, DMEM with 10% gamma-irradiated FBS

SMILES	Resistance of SF-nanobacteria to chemical disinfectants (survival) (SF-nanobacteria; Exposure time 10 min)	Resistance of SF-nanobacteria to chemical disinfectants (survival) (SF-nanobacteria; Exposure time 30 min)	IC50 (nanobacteria; [1])	other results
CCCCCCCCCCCCOS(=O)(=O)[O-].[Na+] [1 % SDS, sodium dodecyl sulfate]	+++	+++		
CCCCCCCC/C=C\CCCCCCCC(=O)OCCOCC(OCCO)C1OCC(OCCO)C1OCCO (stereo not shown) [1 % Tween 80, Tween 80]	+++	+++		
[Na+].[OH-] [1M NaOH, sodium hydroxide]	+++	+++		
O=CCCCC=O [2% glutaraldehyde, glutaraldehyde]	+++	+++		
N=C(N)N [3M Guanidium HCl, guanidium-hydrochloride]		0		effect of chemical disinfection on SF-nanobacteria (in words) (SF-nanobacteria; exposure at room temperature, then subculture): deattachment
NC(N)=O [3M Urea, urea]	+++	+++		
C=O [4% formaldehyde, formaldehyde]	+++	+++		
CCO [70% ethanol, ethanol]	+++	+++		
CC(=O)Oc1ccccc1C(=O)O [Acetylsalicylic acid]				IC50 (nanobacteria; 288 h, read-out: MIC 50): 500 µg/mL; antinanobacterial effect in the in vitro test (in words) (nanobacteria): weak
CC1(C)S[C@@H]2[C@H](NC(=O)[C@H](N)c3ccccc3)C(=O)N2[C@H]1C(=O)O [Ampicillin]			500 µg/mL	antinanobacterial effect in the in vitro test (in words) (nanobacteria): weak bacteriostatic effect
CC(=O)OCC1=C(C(=O)O)N2C(=O)[C@@H](NC(=O)Cc3cccs3)[C@H]2SC1 [Cephalothin]			> 500 µg/mL	
O=P(O)(O)C(Cl)(Cl)P(=O)(O)O [Chlodronate]			0.1 µg/mL	antinanobacterial effect in the in vitro test (in words) (nanobacteria): bacteriocidic effect; IC90 (nanobacteria; [2]): 0.5 µg/mL
O=C(N[C@H](CO)[C@H](O)c1ccc([N+](=O)[O-])cc1)C(Cl)Cl [Chloramphenicol]			> 500 µg/mL	
O=C(O)CC(O)(CC(=O)O)C(=O)O [Citrate]				IC90 (nanobacteria; 288 h, 12 day time point): 1000 µM; pIC50 (nanobacteria; 288 h, read-out: MIC 50): 3.70; antinanobacterial effect in the in vitro test (in words) (nanobacteria): effective antinanobacterial agent
CC[C@H]1OC(=O)[C@H](C)[C@@H](O[C@H]2C[C@@](C)(OC)[C@@H](O)[C@H](C)O2)[C@H](C)[C@@H](O[C@@H]2O[C@H](C)C[C@H](N(C)C)[C@H]2O)[C@](C)(OC)C[C@@H](C)C(=O)[C@H](C)[C@@H](O)[C@]1(C)O [Clarithromycin]			> 500 µg/mL	
O=C(O)CN(CCOCCOCCN(CC(=O)O)CC(=O)O)CC(=O)O [EGTA]				antinanobacterial effect in the in vitro test (in words) (nanobacteria): antinanobacterial effects
CC[C@@H](CO)NCCN[C@@H](CC)CO [Ethambutol]			> 500 µg/mL	
CC(O)(P(=O)(O)O)P(=O)(O)O [Ethidronate]			0.1 µg/mL	antinanobacterial effect in the in vitro test (in words) (nanobacteria): bacteriocidic effect; IC90 (nanobacteria; [2]): 0.5 µg/mL
CCC[C@@H]1C[C@@H](C(=O)N[C@@H]([C@H]2O[C@H](SC)[C@H](O)[C@@H](O)[C@H]2O)[C@@H](C)O)N(C)C1 [Lincomycin]			> 500 µg/mL	
Cc1ncc([N+](=O)[O-])n1CCO [Metronidasole]				MIC 50 (nanobacteria; 50% inhibition, 12 day time point, DMEM with 10% gamma-irradiated FBS): >500 µg/mL
